This is an account of results in article PMC4685510, “A Cell Biologist’s Field Guide to Aurora Kinase Inhibitors” (Frontiers in Oncology, 2015).

Where two headings read alike, the source gives them in different places.

Common to all, as to experiment: biochemical
Holding throughout (format): biochemical

Assay [1] has as its target T1, 363 human kinases (including Aurora A/B/C) (Homo sapiens, UniProt Q8N752).
T1 sequence (Q8N752 1-337): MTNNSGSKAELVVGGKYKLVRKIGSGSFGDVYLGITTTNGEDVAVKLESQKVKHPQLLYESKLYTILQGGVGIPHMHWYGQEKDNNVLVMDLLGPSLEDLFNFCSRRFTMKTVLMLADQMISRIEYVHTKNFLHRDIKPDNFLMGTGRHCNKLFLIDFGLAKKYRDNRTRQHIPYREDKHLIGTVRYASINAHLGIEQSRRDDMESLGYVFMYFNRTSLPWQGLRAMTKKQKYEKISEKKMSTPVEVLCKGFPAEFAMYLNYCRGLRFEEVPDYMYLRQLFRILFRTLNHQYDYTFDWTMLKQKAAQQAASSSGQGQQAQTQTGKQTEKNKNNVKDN
The settings on record: CK1a1L, [ATP] 30 µM; for remaining activity at 0.1 µM: 100 nM; for remaining activity at 0.1 µM / remaining activity at 0.5 µM: read-out: % Enzyme Activity (relative to DMSO controls).
Text: (§1) However, the Aurora A/B selectivity ratios derived from our in vitro and in vivo data can be compared to prioritize inhibitors.

The target in assay [2] is 363 human kinases (including Aurora A/B/C) (Homo sapiens, UniProt P27448). The note with it: MARK3; for remaining activity at 0.1 µM: 100 nM; for remaining activity at 0.1 µM / remaining activity at 0.5 µM: read-out: % Enzyme Activity (relative to DMSO controls).
363 human kinases (including Aurora A/B/C) (Homo sapiens, UniProt P27448), sequence (P27448 whole entry): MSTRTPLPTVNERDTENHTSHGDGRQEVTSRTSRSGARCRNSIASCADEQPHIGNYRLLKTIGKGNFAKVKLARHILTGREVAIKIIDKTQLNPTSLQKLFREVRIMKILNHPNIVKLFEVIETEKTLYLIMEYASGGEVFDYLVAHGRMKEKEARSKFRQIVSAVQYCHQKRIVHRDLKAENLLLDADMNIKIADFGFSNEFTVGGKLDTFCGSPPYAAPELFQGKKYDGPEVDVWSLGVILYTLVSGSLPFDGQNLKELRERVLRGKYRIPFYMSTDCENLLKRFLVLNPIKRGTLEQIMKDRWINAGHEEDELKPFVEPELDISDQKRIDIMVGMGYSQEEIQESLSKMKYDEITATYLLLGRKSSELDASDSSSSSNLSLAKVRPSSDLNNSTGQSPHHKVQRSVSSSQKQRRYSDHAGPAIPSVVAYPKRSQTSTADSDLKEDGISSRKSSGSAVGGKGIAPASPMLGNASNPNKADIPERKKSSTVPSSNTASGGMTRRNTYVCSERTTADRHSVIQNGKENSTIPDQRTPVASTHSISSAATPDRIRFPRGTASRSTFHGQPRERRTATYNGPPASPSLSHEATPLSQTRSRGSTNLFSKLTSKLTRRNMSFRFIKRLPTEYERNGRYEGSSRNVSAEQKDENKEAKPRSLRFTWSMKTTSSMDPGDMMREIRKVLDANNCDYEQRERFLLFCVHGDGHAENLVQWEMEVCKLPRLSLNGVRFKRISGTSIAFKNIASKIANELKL
Text: as §1
Assay [3] addresses 363 human kinases (including Aurora A/B/C) (Homo sapiens, UniProt Q9UPE1). The settings on record: MSSK1/STK23; for remaining activity at 0.1 µM: 100 nM; for remaining activity at 0.1 µM / remaining activity at 0.5 µM: read-out: % Enzyme Activity (relative to DMSO controls).
Text: as §1
Assay [4] deals with T2, 363 human kinases (including Aurora A/B/C) (Homo sapiens, UniProt P43403).
T2 sequence (P43403 1-619): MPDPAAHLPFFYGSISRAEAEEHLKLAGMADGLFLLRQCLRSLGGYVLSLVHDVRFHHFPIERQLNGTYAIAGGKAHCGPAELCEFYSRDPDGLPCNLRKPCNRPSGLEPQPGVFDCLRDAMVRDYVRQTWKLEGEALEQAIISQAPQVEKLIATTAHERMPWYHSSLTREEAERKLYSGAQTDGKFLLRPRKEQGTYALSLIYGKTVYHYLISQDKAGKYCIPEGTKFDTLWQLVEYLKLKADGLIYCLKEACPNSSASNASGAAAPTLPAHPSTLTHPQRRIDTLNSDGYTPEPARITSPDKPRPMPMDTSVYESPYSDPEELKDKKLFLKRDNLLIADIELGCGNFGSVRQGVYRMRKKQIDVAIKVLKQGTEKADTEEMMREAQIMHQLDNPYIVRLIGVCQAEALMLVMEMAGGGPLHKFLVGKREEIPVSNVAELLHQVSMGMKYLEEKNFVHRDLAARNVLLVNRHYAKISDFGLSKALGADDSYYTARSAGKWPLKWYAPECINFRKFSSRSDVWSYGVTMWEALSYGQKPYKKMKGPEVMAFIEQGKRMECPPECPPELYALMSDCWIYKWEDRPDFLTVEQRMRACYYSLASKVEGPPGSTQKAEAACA
The settings on record: ZAP70; for remaining activity at 0.1 µM: 100 nM; for remaining activity at 0.1 µM / remaining activity at 0.5 µM: read-out: % Enzyme Activity (relative to DMSO controls).
Text: as §1

For assay [5], the target named is 363 human kinases (including Aurora A/B/C) (Homo sapiens, UniProt Q15375). The note with it: EPHA7, [ATP] 100 µM; for remaining activity at 0.1 µM: 100 nM; for remaining activity at 0.1 µM / remaining activity at 0.5 µM: read-out: % Enzyme Activity (relative to DMSO controls).
363 human kinases (including Aurora A/B/C) (Homo sapiens, UniProt Q15375), sequence (Q15375 28-998): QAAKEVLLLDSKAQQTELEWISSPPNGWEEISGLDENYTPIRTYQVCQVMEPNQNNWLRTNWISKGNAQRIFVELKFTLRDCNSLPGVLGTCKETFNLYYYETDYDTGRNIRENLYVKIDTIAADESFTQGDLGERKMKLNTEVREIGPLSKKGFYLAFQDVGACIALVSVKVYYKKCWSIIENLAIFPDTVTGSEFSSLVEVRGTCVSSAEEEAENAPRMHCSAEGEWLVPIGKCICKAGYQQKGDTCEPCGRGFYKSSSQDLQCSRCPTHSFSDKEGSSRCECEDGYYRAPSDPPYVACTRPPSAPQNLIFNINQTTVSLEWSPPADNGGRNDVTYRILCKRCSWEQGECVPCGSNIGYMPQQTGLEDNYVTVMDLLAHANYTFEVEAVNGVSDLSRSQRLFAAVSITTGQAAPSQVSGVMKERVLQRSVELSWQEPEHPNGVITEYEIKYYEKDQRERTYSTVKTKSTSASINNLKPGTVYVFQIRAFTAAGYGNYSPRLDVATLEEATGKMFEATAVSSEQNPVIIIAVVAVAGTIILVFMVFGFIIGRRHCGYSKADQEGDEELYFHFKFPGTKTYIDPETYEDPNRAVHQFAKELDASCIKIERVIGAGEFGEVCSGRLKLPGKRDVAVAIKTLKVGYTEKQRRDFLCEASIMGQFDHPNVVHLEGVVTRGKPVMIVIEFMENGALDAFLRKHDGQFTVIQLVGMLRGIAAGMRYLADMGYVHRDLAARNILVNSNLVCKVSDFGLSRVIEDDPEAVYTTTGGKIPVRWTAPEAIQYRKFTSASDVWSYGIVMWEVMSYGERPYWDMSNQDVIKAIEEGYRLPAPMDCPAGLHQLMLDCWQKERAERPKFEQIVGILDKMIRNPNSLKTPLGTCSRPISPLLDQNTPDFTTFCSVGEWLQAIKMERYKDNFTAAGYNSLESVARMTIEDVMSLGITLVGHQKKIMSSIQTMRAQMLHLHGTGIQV
Text: as §1
Assay [6] concerns the target T3, 363 human kinases (including Aurora A/B/C) (Homo sapiens, UniProt Q9NRM7).
T3 sequence (Q9NRM7 1-1088): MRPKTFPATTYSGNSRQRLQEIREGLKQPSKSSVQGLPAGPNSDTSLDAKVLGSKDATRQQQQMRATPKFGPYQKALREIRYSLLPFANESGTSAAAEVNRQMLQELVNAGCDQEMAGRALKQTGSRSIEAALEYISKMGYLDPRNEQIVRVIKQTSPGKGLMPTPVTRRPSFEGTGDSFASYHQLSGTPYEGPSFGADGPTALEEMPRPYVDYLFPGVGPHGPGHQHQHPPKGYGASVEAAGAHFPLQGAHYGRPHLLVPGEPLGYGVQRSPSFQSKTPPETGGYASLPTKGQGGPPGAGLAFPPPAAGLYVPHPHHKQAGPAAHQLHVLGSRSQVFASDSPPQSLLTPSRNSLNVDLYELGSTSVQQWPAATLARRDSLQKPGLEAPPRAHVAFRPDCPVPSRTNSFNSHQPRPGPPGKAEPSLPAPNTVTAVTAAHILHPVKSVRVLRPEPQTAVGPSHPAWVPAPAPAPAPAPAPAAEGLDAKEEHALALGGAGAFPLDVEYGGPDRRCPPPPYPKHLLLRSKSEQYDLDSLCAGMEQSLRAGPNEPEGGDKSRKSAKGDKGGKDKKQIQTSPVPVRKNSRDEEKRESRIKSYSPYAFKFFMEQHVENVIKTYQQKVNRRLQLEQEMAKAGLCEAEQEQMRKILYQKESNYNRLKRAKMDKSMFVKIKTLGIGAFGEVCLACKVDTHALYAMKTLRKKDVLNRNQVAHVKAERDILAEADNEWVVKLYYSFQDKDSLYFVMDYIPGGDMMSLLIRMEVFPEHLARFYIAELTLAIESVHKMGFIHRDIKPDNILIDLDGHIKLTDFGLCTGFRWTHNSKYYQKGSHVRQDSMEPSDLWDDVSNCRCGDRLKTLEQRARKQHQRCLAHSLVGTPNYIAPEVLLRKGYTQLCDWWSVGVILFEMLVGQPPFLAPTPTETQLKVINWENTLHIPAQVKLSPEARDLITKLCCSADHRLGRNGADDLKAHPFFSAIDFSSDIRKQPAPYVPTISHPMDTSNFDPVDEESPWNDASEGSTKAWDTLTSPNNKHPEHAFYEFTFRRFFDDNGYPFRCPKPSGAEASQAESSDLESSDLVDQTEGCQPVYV
The settings on record: LATS2; for remaining activity at 0.1 µM: 100 nM; for remaining activity at 0.1 µM / remaining activity at 0.5 µM: read-out: % Enzyme Activity (relative to DMSO controls).
Text: as §1

For assay [7], the target named is 363 human kinases (including Aurora A/B/C) (Homo sapiens, UniProt P42684). The note with it: ABL2/ARG, [ATP] 30 µM; for remaining activity at 0.1 µM: 100 nM; for remaining activity at 0.1 µM / remaining activity at 0.5 µM: read-out: % Enzyme Activity (relative to DMSO controls).
363 human kinases (including Aurora A/B/C) (Homo sapiens, UniProt P42684), sequence (P42684 whole entry): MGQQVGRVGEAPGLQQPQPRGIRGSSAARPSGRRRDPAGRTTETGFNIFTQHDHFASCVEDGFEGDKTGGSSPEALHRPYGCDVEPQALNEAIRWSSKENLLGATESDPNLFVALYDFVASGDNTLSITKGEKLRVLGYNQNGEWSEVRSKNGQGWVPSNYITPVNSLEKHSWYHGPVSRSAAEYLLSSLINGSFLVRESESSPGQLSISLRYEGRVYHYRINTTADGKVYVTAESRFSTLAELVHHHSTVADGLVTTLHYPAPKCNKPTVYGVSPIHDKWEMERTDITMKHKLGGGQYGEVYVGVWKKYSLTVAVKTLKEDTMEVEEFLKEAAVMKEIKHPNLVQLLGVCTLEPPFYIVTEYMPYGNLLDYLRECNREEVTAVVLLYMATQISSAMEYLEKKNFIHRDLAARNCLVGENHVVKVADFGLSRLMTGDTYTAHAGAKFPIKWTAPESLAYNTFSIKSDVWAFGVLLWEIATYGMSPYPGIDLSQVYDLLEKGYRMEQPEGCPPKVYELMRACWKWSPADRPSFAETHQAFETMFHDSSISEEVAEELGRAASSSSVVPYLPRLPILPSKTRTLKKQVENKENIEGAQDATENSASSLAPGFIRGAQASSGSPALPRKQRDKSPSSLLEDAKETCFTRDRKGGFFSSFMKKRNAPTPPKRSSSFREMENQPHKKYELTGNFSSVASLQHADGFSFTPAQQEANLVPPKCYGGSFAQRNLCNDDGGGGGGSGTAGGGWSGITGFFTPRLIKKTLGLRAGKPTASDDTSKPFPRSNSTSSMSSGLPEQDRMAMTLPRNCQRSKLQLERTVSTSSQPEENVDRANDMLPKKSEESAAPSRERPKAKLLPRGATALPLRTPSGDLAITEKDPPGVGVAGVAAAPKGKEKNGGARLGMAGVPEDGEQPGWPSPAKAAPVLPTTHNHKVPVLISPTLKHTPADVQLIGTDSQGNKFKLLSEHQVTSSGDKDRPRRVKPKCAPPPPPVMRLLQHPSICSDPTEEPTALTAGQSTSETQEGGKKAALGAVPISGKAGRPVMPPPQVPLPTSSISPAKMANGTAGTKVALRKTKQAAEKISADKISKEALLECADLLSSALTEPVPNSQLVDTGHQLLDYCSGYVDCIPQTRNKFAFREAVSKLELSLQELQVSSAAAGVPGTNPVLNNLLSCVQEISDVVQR
Text: as §1
Assay [8] has as its target 363 human kinases (including Aurora A/B/C) (Homo sapiens, UniProt P11362). The note with it: for remaining activity at 0.1 µM / remaining activity at 0.5 µM: read-out: % Enzyme Activity (relative to DMSO controls).
Text: as §1
The target of assay [9] is 363 human kinases (including Aurora A/B/C) (Homo sapiens, UniProt P17252). The note with it: PKCa; for remaining activity at 0.1 µM: 100 nM; for remaining activity at 0.1 µM / remaining activity at 0.5 µM: read-out: % Enzyme Activity (relative to DMSO controls).
Text: as §1

363 human kinases (including Aurora A/B/C) (Homo sapiens, UniProt P11362), sequence (P11362 22-822): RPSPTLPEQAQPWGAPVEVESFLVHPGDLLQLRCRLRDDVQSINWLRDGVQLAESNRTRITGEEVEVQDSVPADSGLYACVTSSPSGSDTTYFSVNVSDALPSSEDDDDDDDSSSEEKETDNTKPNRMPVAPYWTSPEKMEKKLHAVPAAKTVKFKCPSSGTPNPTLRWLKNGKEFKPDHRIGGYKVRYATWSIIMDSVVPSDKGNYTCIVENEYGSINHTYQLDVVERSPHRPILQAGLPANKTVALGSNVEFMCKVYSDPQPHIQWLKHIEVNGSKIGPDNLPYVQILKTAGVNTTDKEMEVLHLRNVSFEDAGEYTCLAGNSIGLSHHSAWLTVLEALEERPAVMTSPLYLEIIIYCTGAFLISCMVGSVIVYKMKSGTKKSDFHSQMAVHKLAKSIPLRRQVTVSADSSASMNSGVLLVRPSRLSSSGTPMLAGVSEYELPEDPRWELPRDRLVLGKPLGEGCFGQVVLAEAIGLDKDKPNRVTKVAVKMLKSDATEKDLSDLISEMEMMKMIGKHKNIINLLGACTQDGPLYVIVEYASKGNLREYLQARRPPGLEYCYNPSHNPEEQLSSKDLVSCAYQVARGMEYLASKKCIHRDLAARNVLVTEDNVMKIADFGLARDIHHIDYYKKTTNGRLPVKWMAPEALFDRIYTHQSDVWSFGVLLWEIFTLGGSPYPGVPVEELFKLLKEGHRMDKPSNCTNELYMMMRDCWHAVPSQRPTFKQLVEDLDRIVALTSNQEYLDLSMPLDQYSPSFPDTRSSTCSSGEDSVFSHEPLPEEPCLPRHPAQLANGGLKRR
363 human kinases (including Aurora A/B/C) (Homo sapiens, UniProt Q9UPE1), sequence (Q9UPE1 whole entry): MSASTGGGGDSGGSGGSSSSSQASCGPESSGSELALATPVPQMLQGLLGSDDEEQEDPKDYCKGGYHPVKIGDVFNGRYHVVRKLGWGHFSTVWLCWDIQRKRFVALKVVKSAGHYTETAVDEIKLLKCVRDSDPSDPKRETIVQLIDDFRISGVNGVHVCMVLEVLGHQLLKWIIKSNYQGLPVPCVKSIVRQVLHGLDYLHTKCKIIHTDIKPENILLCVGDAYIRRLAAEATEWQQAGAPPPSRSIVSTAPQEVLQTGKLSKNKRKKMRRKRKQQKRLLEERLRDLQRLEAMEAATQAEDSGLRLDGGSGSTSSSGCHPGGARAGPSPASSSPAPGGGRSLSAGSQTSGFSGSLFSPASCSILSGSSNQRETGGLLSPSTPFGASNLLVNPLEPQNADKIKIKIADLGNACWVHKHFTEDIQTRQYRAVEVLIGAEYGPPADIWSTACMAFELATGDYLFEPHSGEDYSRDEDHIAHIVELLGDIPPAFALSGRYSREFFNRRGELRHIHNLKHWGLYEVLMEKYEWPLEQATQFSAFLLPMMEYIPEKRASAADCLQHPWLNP

For the molecule `CCn1cc(-c2ccnc3[nH]c(-c4cccc(CN(C)C)c4)cc23)c(-c2ccc(NC(=O)N(C)C)cc2)n1` [GSK1070916], the remaining activity at 0.1 µM in [1] came out at 108%; in assay [2], 97.2%; in assay [3] it was 95.5%; in assay [4], 105%; in assay [5], 89%; in assay [6], 90.6%. The remaining activity at 0.1 µM in [7] is 94.2%; in assay [8] it was 60.2%; in assay [9] it was 99.6%.
`O=C(O)[C@]1(Cc2cccc(Nc3nccs3)n2)CC[C@@H](Oc2cccc(Cl)c2F)CC1` [MK-5108]: the remaining activity at 0.1 µM stood at 108% in assay [1]; 98.4% in assay [2]; 99% in [3]; 103% in assay [4]; 35.6% in [5]; 96.8% in assay [6]. Besides, the remaining activity at 0.1 µM in assay [7] was determined as 12.2%; in assay [8] (FGFR1, [ATP] 5 µM, 100 nM) it was 61.8%; in assay [9], 69.8%. Also, the remaining activity at 0.5 µM in [1] (500 nM) came to 115%; in assay [2] (500 nM), 107%; in assay [3] (500 nM), 85%; in assay [4] (500 nM), 113%; in [5] (500 nM) it was 9.76%; in assay [6] (500 nM), 81.6%. For the same molecule, the remaining activity at 0.5 µM in [7] (500 nM) was 2.32%; in assay [8] (FGFR1, [ATP] 5 µM, 500 nM), 30.8%; in [9] (500 nM) it was 33.2%.
As for `O=C(c1cccc(Cl)c1F)N1CCN(Cc2cccc(Nc3nccs3)n2)CC1` [MK-8745], the “% Enzyme Activity (relative to DMSO controls)” value in [1] (500 nM) is listed as 102.40%; in assay [2] (500 nM), 110.19%; in [3] (500 nM), 93.46%; in assay [4] (500 nM), 97.69%; in [5] (500 nM) it was 62.14%; in assay [6] (500 nM), 81.73%. The “% Enzyme Activity (relative to DMSO controls)” value is on record as 85.19% in assay [7] (500 nM); 93.82% in [8] (FGFR1, [ATP] 5 µM, 500 nM); 92.64% in assay [9] (500 nM). In addition, the remaining activity at 0.5 µM is 103% in [1] (500 nM); 111% in assay [2] (500 nM); 93.6% in assay [3] (500 nM); 109% in assay [4] (500 nM); 63.1% in assay [5] (500 nM); 81.8% in assay [6] (500 nM). For the same molecule, the remaining activity at 0.5 µM was determined as 85.8% in [7] (500 nM); 97.1% in assay [8] (FGFR1, [ATP] 5 µM, 500 nM); 95.4% in assay [9] (500 nM).
